Non-standard residues stand in square brackets, D forms with d. Residues, ends and D or L forms follow the SMILES beside them. Nspe = C[C@H](NCC(=O)O)c1ccccc1; NhArg = N=C(N)NCCCCNCC(=O)O; Nlys = NCCCCNCC(=O)O
How the values were obtained:
[1] = tested on: MCF-7 (breast cancer); test: MTS cell viability assay, MCF-7; format: cell-based
Procedure: (§1) MCF-7, MCF-7/TxT50 and OVCAR-3 (available in ATCC) were kindly provided by Professor Branimir Sikic's lab at Stanford University, and were cultured in McCoy's 5A media (GIBCO) with 10% FBS and antibiotics. Primary dermal fibroblasts were gifts from Lifeline Cell Technology and were cultured <6 passages according to the protocol Lifeline provides. All the cells were cultured in cell incubators (Thermo Scientific) at 37°C with 5% CO2.
(§2) This assay is a colorimetric method for determining the number of viable cells in proliferation. Aliquots of 100 µl media containing 1×10^4 cells were distributed into each well of a 96-well plate (BD Falcon). The following day, when cell density reaches about ∼40% confluency, the cell media were removed and replaced with serial dilutions of peptoid stocks in culturing media. For peptoid dilutions, peptoid stocks were initially diluted in media at 100 µM and then diluted by half in series using a multichannel pipette, and maintained in 100 µl media for each concentration with triple repeats. After peptoid solutions were transferred onto cells in 96-well plates, cells were incubated at 37°C for certain time periods. Then 20 µl of the CellTiter 96 Aqueous Non-Radioactive cell proliferation assay (Promega) reagent which contains a tetrazolium compound, [3-(4,5-dimethylthiazol-2-yl)-5-(3-carboxymethoxyphenyl)-2-(4-sulfophenyl)-2H-tetrazolium, inner salt; MTS(a)], was added to each well and cells were further incubated for 2 h to metabolize. The absorbance of formazan products were measured at 490 nm in a microplate reader (Molecular Devices). Percentage of cell viability = (A -A testblank)/(A control -A blank)×100, where A is the absorbance of the test well and A control the average absorbance of wells with cells not treated with peptoids. A testblank (media, MTS, and diluted peptoids) and A blank (media and MTS) were background absorbances measured in the absence of cells.
(§3) The activity and selectivity of these peptoids against cancer cells were evaluated in vitro. Their cytotoxicity was tested in three cancer cell lines, MCF-7 (human breast cancer), LNCaP (human prostate cancer), and OVCAR-3 (human ovarian cancer). To estimate the selectivity of these peptoids in vitro, hemolytic activities of some peptoids were cited from previously published work (Table 2 **column), and the MRC-5 cell line (human fibroblasts derived from fetal lung tissues) and primary dermal fibroblasts were also tested as normal cell controls. Briefly, cells were treated with peptoids diluted in culturing media for certain time periods, and then cell viability was measured via MTS assays.

[2] = tested on: human red blood cells; settings: cited from earlier work
Excerpt: Table 2 Peptoid Cytotoxicity in cancer cell lines and control cells. | column: HC10 (µM) ** || The chain length is believed to influence not only the activity but also modes of action of cationic, amphipathic peptides, [34]. […] Thus we limited the chain length of peptoids to 13 residues at most, and studied 1 9mer which has the same charge-to-length ratio (CTLR) as peptoid ...

[3] = tested on: MRC-5 (fetal lung fibroblast); test: MTS cell viability assay, MRC-5; format: cell-based
Procedure: as §1, §2, §3

[4] = tested on: Primary dermal fibroblast; test: MTS cell viability assay, primary dermal fibroblasts; format: cell-based
Procedure: as §1, §2, §3

[5] = tested on: OVCAR3 (ovarian cancer); test: MTS cell viability assay, OVCAR3; format: cell-based
Procedure: as §1, §2, §3

[6] = Analytical RP-HPLC elution as relative measure of molecular hydrophobicity; format: physicochemical; settings: percentage of acetonitrile at elution, analytic RP-HPLC, C18 column, linear water/acetonitrile (0.1% trifluoroacetic acid) gradient 5%-95% acetonitrile over 30 min
Excerpt: Peptoids were synthesized using an ABI 433A peptide synthesizer (Applied Biosystems, Inc.) on Rink amide MBHA resin (EMD Biosciences, Gibbstown, NJ) using the submonomer protocol, [24]. Briefly, the amine on the nascent chain is bromoacetylated or chloroacetylated followed by SN2 displacement of bromide or chloride by a primary amine to form the side chain. Resin-bound peptoids were then exposed to a mixture of trifluoroacetic acid (TFA): triisopropylsilane: water (95∶2.5∶2.5, volume ratio) for 10 minutes to cleave peptoids from the resin. Crude peptoids were purified by reversed-phase high performance liquid chromatography (RP-HPLC) (Waters Corporation) using a C18 column and a linear acetonitrile/water gradient. A final purity >95% as measured by analytical RP-HPLC (Waters Corporation) was achieved, and the identity of each peptoid was confirmed using electrospray ionization mass spectrometry (ESI/MS). Pexiganan was synthesized by standard Fmoc chemistry on an ABI 433A peptide synthesizer ([…]). Unless indicated otherwise, all reagents were purchased from Sigma Aldrich (St. Louis, MO). Among the submonomers used, Nspe was derived from (S)-N-(1-phenylethyl)amine; Npm from benzylamine ([…]); NHis from histamine (2-[4-imidazolyl]ethylamine); NLeu from isobutylamine; NLys from N-tert-butoxycarbonyl-1,4-butanediamine (CNH Technologies, MA). Guanidinylation of NLys was carried out according to the reported procedure. When NHis was used in the peptoid sequence, chloroacetic acid was used. 5(6)-Carboxyfluorescein was used to label the N-terminus of peptoid 1 [28].
Peptoids were utilized herein as a peptidomimetic scaffold to capture the cationic, amphipathic nature of anticancer peptides, as well as to improve molecular stability and to increase chemical diversity. The design of anticancer peptoids were derived from previous antimicrobial peptoids and were further optimized hererin to improve the activity and selectivity of peptoids against anionic membranes, [24], [25]. […] Several novel variants were designed based on peptoid 1 but with different charges, amphipathicity, length, and helicity to change their activity or selectivity. The sequences of these variants, the solvent composition at RP-HPLC elution as a relative measure of molecular hydrophobicity, molecular net charges and their charge-to-length ratio are summarized in Table 1. […] Pexiganan, a clinically-relevant peptide analog of magainin 2 which was developed for topical treatment for diabetic foot infection, and LL-37, the only known human cathelicidin which is a non-selective antimicrobial peptide, were also tested for comparison.

[7] = tested on: LNCaP (prostate cancer); test: MTS cell viability assay, LNCaP; format: cell-based
Procedure: as §2, §3

[8] = MTS assay, 72 h treatment, media with 10% FBS, max 100 µM tested, triple repeats
[9] = normal cell control, MTS assay, 72 h treatment, media with 10% FBS, max 100 µM tested

Q: Which results are given for `C[C@@H](c1ccccc1)N(CC(N)=O)C(=O)CN(CCCCN)C(=O)CN(CCCCN)C(=O)CN(C(=O)CN(C(=O)CN(CCCCN)C(=O)CN(C(=O)CN(CCCCN)C(=O)CN(CCCCN)C(=O)CN(C(=O)CN(C(=O)CNCCCCN)[C@@H](C)c1ccccc1)[C@@H](C)c1ccccc1)[C@@H](C)c1ccccc1)[C@@H](C)c1ccccc1)[C@@H](C)c1ccccc1` [1-NLys5,11, H-(NLys-Nspe-Nspe-NLys-NLys-Nspe)2-NH2] (H-[Nlys][Nspe][Nspe][Nlys][Nlys][Nspe][Nlys][Nspe][Nspe][Nlys][Nlys][Nspe]-NH2)?
A: LC50 MCF-7 (breast cancer) ([1]; 72 h): 31 µM; HC10 [2]: >100 µM; LC50 MRC-5 (fetal lung fibroblast) ([3]; 72 h): 41 µM; LC50 Primary dermal fibroblast ([4]; 72 h): 34 µM; LC50 OVCAR3 (ovarian cancer) ([5]; 72 h): 37 µM; HPLC elution [6]: 51.2 % ACN; LC50 LNCaP (prostate cancer) ([7]; 72 h): 25 µM

Q: Which “LC50 MCF-7 (breast cancer)” value [1, 8] does the source give for `CC[C@H](C)[C@H](NC(=O)CN)C(=O)NCC(=O)N[C@@H](CCCCN)C(=O)N[C@@H](Cc1ccccc1)C(=O)N[C@@H](CC(C)C)C(=O)N[C@@H](CCCCN)C(=O)N[C@@H](CCCCN)C(=O)N[C@@H](C)C(=O)N[C@@H](CCCCN)C(=O)N[C@@H](CCCCN)C(=O)N[C@@H](Cc1ccccc1)C(=O)NCC(=O)N[C@@H](CCCCN)C(=O)N[C@@H](C)C(=O)N[C@@H](Cc1ccccc1)C(=O)N[C@H](C(=O)N[C@@H](CCCCN)C(=O)N[C@H](C(=O)N[C@@H](CC(C)C)C(=O)N[C@@H](CCCCN)C(=O)N[C@@H](CCCCN)C(N)=O)[C@@H](C)CC)C(C)C` [Pexiganan, reference compound] (H-GIGKFLKKAKKFGKAFVKILKK-NH2) here?
A: Its value is 8 µM.

Q: What about the HC10 [2] of the same compound?
A: Its HC10 is 70 µM.

Q: And the “LC50 MRC-5 (fetal lung fibroblast)” value [3, 9]?
A: The value was 21 µM.

Q: What about the “LC50 Primary dermal fibroblast” value [4, 9] of the same compound?
A: Its value is 19 µM.

Q: And the “LC50 OVCAR3 (ovarian cancer)” value [5, 8]?
A: Its value is 13 µM.

Q: What about the “LC50 LNCaP (prostate cancer)” value [7, 8] of the same compound?
A: Its value is 6 µM.

Q: For `C[C@@H](c1ccccc1)N(CC(N)=O)C(=O)CN(C(=O)CN(CCCCNC(=N)N)C(=O)CN(C(=O)CN(C(=O)CN(CCCCNC(=N)N)C(=O)CN(C(=O)CN(C(=O)CN(CCCCNC(=N)N)C(=O)CN(C(=O)CN(C(=O)CNCCCCNC(=N)N)[C@@H](C)c1ccccc1)[C@@H](C)c1ccccc1)[C@@H](C)c1ccccc1)[C@@H](C)c1ccccc1)[C@@H](C)c1ccccc1)[C@@H](C)c1ccccc1)[C@@H](C)c1ccccc1` [Peptoid 1-Nbtg, H-(Nbtg-Nspe-Nspe)4-NH2] (H-[NhArg][Nspe][Nspe][NhArg][Nspe][Nspe][NhArg][Nspe][Nspe][NhArg][Nspe][Nspe]-NH2), which “LC50 MCF-7 (breast cancer)” value ([1]; 72 h) is on record?
A: Its value is 5 µM.

Q: What about the “LC50 MRC-5 (fetal lung fibroblast)” value ([3]; 72 h) of the same compound?
A: Its value is 10 µM.

Q: What about the “LC50 Primary dermal fibroblast” value ([4]; 72 h) of the same compound?
A: The value was 8 µM.

Q: And the “LC50 OVCAR3 (ovarian cancer)” value ([5]; 72 h)?
A: Its value is 8 µM.

Q: And the “LC50 LNCaP (prostate cancer)” value ([7]; 72 h)?
A: The value was 8 µM.

Q: With `CC(C)CN(CC(N)=O)C(=O)CN(CCCCN)C(=O)CN(CC(C)C)C(=O)CN(CC(C)C)C(=O)CN(CCCCN)C(=O)CN(CC(C)C)C(=O)CN(CC(C)C)C(=O)CN(CCCCN)C(=O)CN(CC(C)C)C(=O)CN(CC(C)C)C(=O)CNCCCCN` [1 11mer-NLeu, H-(NLys-NLeu-NLeu)3-NLys-NLeu-NH2] as the compound, how does the “LC50 MCF-7 (breast cancer)” value ([1]; 72 h) read?
A: The value was over 100 µM.

Q: What about the “LC50 MRC-5 (fetal lung fibroblast)” value ([3]; 72 h) of the same compound?
A: The value was over 100 µM.

Q: What about the “LC50 Primary dermal fibroblast” value ([4]; 72 h) of the same compound?
A: The value was over 100 µM.

Q: And the “LC50 OVCAR3 (ovarian cancer)” value ([5]; 72 h)?
A: Its value is over 100 µM.

Q: What about the HPLC elution [6] of the same compound?
A: The HPLC elution was 51 % ACN.

Q: What about the “LC50 LNCaP (prostate cancer)” value ([7]; 72 h) of the same compound?
A: Its value is over 100 µM.

Q: With `CC[C@H](C)[C@H](NC(=O)[C@H](CCCCN)NC(=O)[C@H](CCC(=O)O)NC(=O)[C@H](CCCCN)NC(=O)[C@H](CO)NC(=O)[C@H](CCCCN)NC(=O)[C@H](CCCNC(=N)N)NC(=O)[C@H](Cc1ccccc1)NC(=O)[C@H](Cc1ccccc1)NC(=O)[C@H](CC(=O)O)NC(=O)CNC(=O)[C@H](CC(C)C)NC(=O)[C@@H](N)CC(C)C)C(=O)NCC(=O)N[C@@H](CCCCN)C(=O)N[C@@H](CCC(=O)O)C(=O)N[C@@H](Cc1ccccc1)C(=O)N[C@@H](CCCCN)C(=O)N[C@@H](CCCNC(=N)N)C(=O)N[C@H](C(=O)N[C@H](C(=O)N[C@@H](CCC(N)=O)C(=O)N[C@@H](CCCNC(=N)N)C(=O)N[C@H](C(=O)N[C@@H](CCCCN)C(=O)N[C@@H](CC(=O)O)C(=O)N[C@@H](Cc1ccccc1)C(=O)N[C@@H](CC(C)C)C(=O)N[C@@H](CCCNC(=N)N)C(=O)N[C@@H](CC(N)=O)C(=O)N[C@@H](CC(C)C)C(=O)N[C@H](C(=O)N1CCC[C@H]1C(=O)N[C@@H](CCCNC(=N)N)C(=O)N[C@H](C(=O)N[C@@H](CCC(=O)O)C(=O)N[C@@H](CO)C(=O)O)[C@@H](C)O)C(C)C)[C@@H](C)CC)C(C)C)[C@@H](C)CC` [LL 37, LL-37, reference compound] as the compound, how does the “LC50 MCF-7 (breast cancer)” value ([1]; 72 h) read?
A: Its value is 21 µM.

Q: What about the “LC50 MRC-5 (fetal lung fibroblast)” value ([3]; 72 h) of the same compound?
A: The value was 24 µM.

Q: What about the “LC50 Primary dermal fibroblast” value ([4]; 72 h) of the same compound?
A: The value was 26 µM.

Q: And the “LC50 OVCAR3 (ovarian cancer)” value ([5]; 72 h)?
A: The value was 24 µM.

Q: What about the “LC50 LNCaP (prostate cancer)” value ([7]; 72 h) of the same compound?
A: Its value is 27 µM.

Q: Which hemolytic activity [2] does the source give for “H-(NLys-Nspe-Nspe)5-NH2 [peptoid 1 15mer, reference compound]” here?
A: The hemolytic activity was “substantially higher hemolytic activity”.

Q: Which “LC50 MCF-7 (breast cancer)” value ([1]; 72 h) does the source give for `C[C@@H](c1ccccc1)N(CC(N)=O)C(=O)CN(Cc1ccccc1)C(=O)CN(CCCCN)C(=O)CN(Cc1ccccc1)C(=O)CN(Cc1ccccc1)C(=O)CN(CCCCN)C(=O)CN(Cc1ccccc1)C(=O)CN(Cc1ccccc1)C(=O)CN(CCCCN)C(=O)CN(Cc1ccccc1)C(=O)CN(C(=O)CNCCCCN)[C@@H](C)c1ccccc1` [1 achiral-Nspe2, 12, H-NLys-Nspe-Npm-(NLys-Npm-Npm)2-NLys-Npm-Nspe-NH2] here?
A: Its value is 12 µM.

Q: And the “LC50 MRC-5 (fetal lung fibroblast)” value ([3]; 72 h)?
A: Its value is 21 µM.

Q: What about the “LC50 Primary dermal fibroblast” value ([4]; 72 h) of the same compound?
A: The value was 32 µM.

Q: What about the “LC50 OVCAR3 (ovarian cancer)” value ([5]; 72 h) of the same compound?
A: The value was 16 µM.

Q: What about the HPLC elution [6] of the same compound?
A: The HPLC elution was 62 % ACN.

Q: And the “LC50 LNCaP (prostate cancer)” value ([7]; 72 h)?
A: The value was 10 µM.

From PMC3938723, “Learning from Host-Defense Peptides: Cationic, Amphipathic Peptoids with Potent Anticancer Activity” (PLoS ONE, 2014)
